From patent publication US20120232070A1, “Use of Indole Derivatives as Nurr-1 Activators for the Application Thereof as a Medicament for the Treatment of Parkinson's Disease” (Laboratoires Fournier SA, priority 2009, published 2012) come the findings set out here.

pEC50: −log10 of the molar value.

The target in assay [1] is hNurr1_RXRαFL (NURR1/RXRα heterodimer) (Homo sapiens, UniProt P19793+P43354). The assay can be described thus: Transactivation assay in Cos-7 cells, NURR-1-Gal4 / RXRα, luciferase reporter. Type of assay: cell-based. The conditions noted are these: for Emax: COS-7, read-out: hNurr1_RXRαFL Eff (%), efficacy in % relative to the reference XCT0135908 at 2·10^−5 M (=100%); for pEC50: Cos-7 cells, overnight incubation. A digest of the protocol:
(§1)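 Efficiency is given as a percentage of the induction produced by 2·10^−5 M XCT0135908 (100%), measured from heterodimer baseline. Read-out was luciferase after overnight exposure to compounds (10^−4–3·10^−10 M final) in Cos-7 cells transfected with NURR-1-Gal4, RXRα or RXRγ, and a Gal4 luciferase reporter.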
For orientation: Reporter assays use an easily measured gene product as a stand-in for the process of interest.

For assay [2], the target named is hNurr1_RXRγFL (NURR1/RXRγ heterodimer) (Homo sapiens, UniProt P43354+P48443). The assay can be described thus: Transactivation assay in Cos-7 cells, NURR-1-Gal4 / RXRγ, luciferase reporter. The class given is cell-based. The settings on record: for Emax: COS-7, read-out: hNurr1_RXRγFL Eff (%), efficacy in % relative to the reference XCT0135908 at 2·10^−5 M (=100%); for pEC50: Cos-7 cells, overnight incubation. A digest of the protocol: as §1

Where [3] appears, read: efficacy in % relative to the reference XCT0135908 at 2·10^−5 M (=100%).

hNurr1_RXRαFL (NURR1/RXRα heterodimer), sequence (P19793 whole entry, the tested form may be a part): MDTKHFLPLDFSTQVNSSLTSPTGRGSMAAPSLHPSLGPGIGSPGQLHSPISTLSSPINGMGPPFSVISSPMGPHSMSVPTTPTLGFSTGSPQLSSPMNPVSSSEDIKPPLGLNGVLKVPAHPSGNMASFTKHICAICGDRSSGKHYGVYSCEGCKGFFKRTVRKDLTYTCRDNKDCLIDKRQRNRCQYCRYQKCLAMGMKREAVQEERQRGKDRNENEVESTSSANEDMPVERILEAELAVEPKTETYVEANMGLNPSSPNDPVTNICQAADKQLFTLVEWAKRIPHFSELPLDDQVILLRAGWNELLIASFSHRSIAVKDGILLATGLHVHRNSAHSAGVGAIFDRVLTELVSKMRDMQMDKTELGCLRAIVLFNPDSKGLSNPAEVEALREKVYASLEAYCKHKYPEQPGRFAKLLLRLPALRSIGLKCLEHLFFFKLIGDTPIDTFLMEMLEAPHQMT
hNurr1_RXRαFL (NURR1/RXRα heterodimer), sequence (P43354 328-598): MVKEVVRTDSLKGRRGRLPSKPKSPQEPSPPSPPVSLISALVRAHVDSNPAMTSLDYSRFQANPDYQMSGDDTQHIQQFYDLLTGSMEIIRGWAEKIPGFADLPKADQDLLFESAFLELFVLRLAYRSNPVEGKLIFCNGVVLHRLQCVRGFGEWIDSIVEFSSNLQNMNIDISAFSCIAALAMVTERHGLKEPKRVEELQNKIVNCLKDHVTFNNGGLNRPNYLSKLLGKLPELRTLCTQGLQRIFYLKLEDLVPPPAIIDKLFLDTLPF
hNurr1_RXRγFL (NURR1/RXRγ heterodimer), sequence (P43354 328-598): as above
hNurr1_RXRγFL (NURR1/RXRγ heterodimer), sequence (P48443 whole entry, the tested form may be a part): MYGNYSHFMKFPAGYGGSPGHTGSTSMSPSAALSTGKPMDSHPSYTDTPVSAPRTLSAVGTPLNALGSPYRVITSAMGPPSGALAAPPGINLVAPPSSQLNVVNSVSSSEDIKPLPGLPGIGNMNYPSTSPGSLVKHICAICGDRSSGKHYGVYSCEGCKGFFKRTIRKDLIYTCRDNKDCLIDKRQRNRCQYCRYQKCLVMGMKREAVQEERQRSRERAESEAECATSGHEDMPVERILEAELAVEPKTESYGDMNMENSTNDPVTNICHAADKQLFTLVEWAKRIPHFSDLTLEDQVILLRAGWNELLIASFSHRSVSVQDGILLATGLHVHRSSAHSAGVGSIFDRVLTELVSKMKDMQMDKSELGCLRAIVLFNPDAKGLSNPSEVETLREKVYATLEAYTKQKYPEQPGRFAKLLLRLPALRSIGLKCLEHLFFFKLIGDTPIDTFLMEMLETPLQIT

On to `O=C(O)c1ccc(Cc2cc3cc(C(F)(F)F)ccc3n2S(=O)(=O)c2cccc(SC(F)F)c2)cc1` [Example 126, 4-[[1-[3-difluoromethylsulfanyl-phenylsulfonyl]-5-(trifluoromethyl)-1H-indol-2-yl]methyl]benzoic acid], for which, in assay [1], the Emax is 44% and the pEC50 (usually the negative decadic logarithm of the EC50, by convention in mol/L) is 6.91. Besides, in assay [2], the Emax came out at 32% and the pEC50 was 6.85.

As for `COc1ccc(S(=O)(=O)n2c(Cc3ccc(C(=O)O)cc3)cc3cc(Cl)ccc32)cn1` [Example 169, 4-[[5-chloro-1-[(6-methoxy-3-pyridinyl)sulfonyl]-1H-indol-2-yl]methyl]benzoic acid], in assay [1], the Emax came out at 46% and the negative-log EC50 (pEC50) is 5.99. In assay [2], the Emax came out at 28% and the pEC50 is 5.60.

In the case of `COC(=O)c1cc(Cc2cc3cc(C(F)(F)F)ccc3n2S(=O)(=O)c2cccc(C(C)(C)C)c2)cn1C` [Example 192, 4-{[1-[[3-(1,1-dimethylethyl)-phenyl]sulfonyl]-5-trifluoromethyl-1H-indol-2-yl]-methyl}-1-methyl-1H-pyrrol-2-yl-carboxylic acid, methyl ester], the Emax in assay [1] was found to be 85%; in assay [2], 58%. In addition, the results for the negative logarithm of the EC50 (pEC50) in assay [1] and in assay [2] were 5.95 and under 5.00, respectively.

Take `COC(=O)c1ccc(Cc2cc3ccccc3n2S(=O)(=O)c2cccc(C(C)(C)C)c2)cc1` [Example 194, 4-[[1-[[3-(1,1-dimethylethyl)phenyl]sulfonyl]-1H-indol-2-yl]methyl]-benzoic acid, methyl ester]: the Emax in assay [1] amounted to 42%; in assay [2], 36%. Besides, the pEC50 was 6.46 in assay [1] and 6.50 in assay [2].

For the compound `COC(=O)c1ccc(Cc2cc3cc(C(F)(F)F)ccc3n2S(=O)(=O)c2ccc(C(C)C)cc2)cc1F` [Example 1, 2-fluoro-4-[[1-[[4-(1-methylethyl)phenyl]sulfonyl]-5-(trifluoromethyl)-1H-indol-2-yl]methyl]benzoic acid, methyl ester], in assay [1], the Emax amounted to 65% and the pEC50 is 6.39. Further, in assay [2], the Emax came to 60% and the pEC50 is 6.14.

With `CS(=O)(=O)n1c(Cc2ccc(C(=O)O)cc2)cc2cc(Cl)ccc21` [Example 181, 4-[[5-chloro-1-(methylsulfonyl)-1H-indol-2-yl]methyl]benzoic acid], the Emax in assay [1] was 111%; in assay [2], 152%. Further, the pEC50 was 5.86 in assay [1] and 5.39 in assay [2].

Take `O=C(O)c1ccc(Cc2cc3cc(C(F)(F)F)ccc3n2S(=O)(=O)c2ccc(F)c(Cl)c2)cc1` [Example 15, 4-[[1-[(3-chloro-4-fluorophenyl)sulfonyl]-5-(trifluoromethyl)-1H-indol-2-yl]methyl]benzoic acid]: the Emax in assay [1] was 66%; in assay [2], 54%. Moreover, the values for the pEC50 in assay [1] and in assay [2] were 6.43 and 6.13, respectively.

Consider `CN1CCOc2ccc(S(=O)(=O)n3c(Cc4ccc(C(=O)O)c(Cl)c4)cc4cc(C(F)(F)F)ccc43)cc21` [Example 211, 4-[[1-[[4-methyl-3,4-dihydro-2H-benzo[1,4]oxazin-6-yl]-sulfonyl]-5-trifluoromethyl-1H-indol-2-yl]methyl]-2-chlorobenzoic acid], for which, in assay [1], the Emax amounted to 83% and the negative logarithm of the EC50 (pEC50) is 6.41. Moreover, in assay [2], the Emax was 56% and the pEC50 was 6.33.

In the case of `O=C(O)c1ccc(Cc2cc3cc(Cl)ccc3n2S(=O)(=O)c2cccc(C(F)(F)F)c2)cc1` [Example 28, 4-[[5-chloro-1-[[3-(trifluoromethyl)phenyl]sulfonyl]-1H-indol-2-yl]-methyl]benzoic acid], the Emax in assay [1] came to 78%; in assay [2], 67%. The pEC50 in assay [1] is 6.48; in assay [2] it was 6.35.

For the compound `COc1ccc(S(=O)(=O)n2c(Cc3ccc(C(=O)O)cc3)cc3cc(C(F)(F)F)ccc32)cc1` [Example 138, 4-[[1-[4-methoxy-phenylsulfonyl]-5-(trifluoromethyl)-1H-indol-2-yl]methyl]benzoic acid], the Emax in assay [1] amounted to 41%; in assay [2], 28%. The pEC50 in assay [1] was 6.46; in assay [2], 6.23.

Turning to `O=C(O)c1ccc(Cc2cc3cc(Cl)ccc3n2S(=O)(=O)c2ccc(F)cc2)cc1` [Example 167, 4-[[1-[4-fluoro-phenylsulfonyl]-5-(chloro)-1H-indol-2-yl]methyl]benzoic acid], the Emax in assay [1] was found to be 48%; in assay [2], 40%. For the same compound, the negative logarithm of the EC50 (pEC50) in assay [1] was 5.94; in assay [2], 5.61.

As for `CCS(=O)(=O)n1c(Cc2ccc(C(=O)O)cc2)cc2cc(Cl)ccc21` [Example 176, 4-[[5-chloro-1-(ethylsulfonyl)-1H-indol-2-yl]methyl]benzoic acid], the Emax in assay [1] amounted to 33%; in assay [2], 21%. Further, the pEC50 is 5.47 in assay [1] and under 5.00 in assay [2].

Consider `CC(C)(C)c1cccc(S(=O)(=O)n2c(Cc3cncc(C(=O)O)c3)cc3cc(C(F)(F)F)ccc32)c1` [Example 204, 3-[[1-[[3-(1,1-dimethylethyl)-phenyl]sulfonyl]-5-trifluoromethyl-1H-indol-2-yl]methyl]-5-pyridine carboxylic acid], for which, in assay [1], the Emax was determined as 102% and the negative-log EC50 (pEC50) was 6.97. Moreover, in assay [2], the Emax stood at 93% and the negative logarithm of the EC50 (pEC50) was 6.71.

Take `CC(C)c1cccc(S(=O)(=O)n2c(Cc3ccc(C(=O)O)cc3)cc3cc(N4CCCC4)ccc32)c1` [Example 116, 4-[[1-[[3-(1-methylethyl)phenyl]sulfonyl]-5-(pyrrolidin)-1H-indol-2-yl]methyl]benzoic acid]: the pEC50 was 6.06 in assay [1] and 5.84 in assay [2]. Also, the “hNurr1_RXRαFL Eff (%)” value in assay [1] (setting [3]) came out at 74%. In addition, the “hNurr1_RXRγFL Eff (%)” value in assay [2] (setting [3]) is 50%.

As for `CC(C)(C)c1cccc(S(=O)(=O)n2c(Cc3ccc(C(=O)O)cc3)cc3ccccc32)c1` [Example 195, 4-[[1-[[3-(1,1-dimethylethyl)phenyl]sulfonyl]-1H-indol-2-yl]methyl]-benzoic acid], in assay [1], the Emax worked out at 57% and the pEC50 is 6.20. In addition, in assay [2], the Emax was found to be 56% and the negative-log EC50 (pEC50) is 5.93.

As for `CCCCCc1ccc(S(=O)(=O)n2c(Cc3ccc(C(=O)O)cc3)cc3cc(C(F)(F)F)ccc32)cc1` [Example 140, 4-[[1-[4-pentyl-benzenesulfonyl]-5-(trifluoromethyl)-1H-indol-2-yl]methyl]benzoic acid], the Emax came out at 46% in assay [1] and 22% in assay [2]. Further, the pEC50 in assay [1] was 6.43; in assay [2], 6.41.

For the compound `CCc1ccc(S(=O)(=O)n2c(Cc3ccc(C(=O)O)cc3)cc3cc(Cl)ccc32)cc1` [Example 159, 4-[[1-[4-ethyl-phenylsulfonyl]-5-(chloro)-1H-indol-2-yl]methyl]benzoic acid], in assay [1], the Emax came to 66% and the negative logarithm of the EC50 (pEC50) was 6.50. Further, in assay [2], the Emax was determined as 45% and the pEC50 is 6.11.

For the compound `CC(C)(C)c1cccc(S(=O)(=O)n2c(Cc3ccc(S(N)(=O)=O)cc3)cc3cc(C(F)(F)F)ccc32)c1` [Example 198, 4-[[1-[[3-(1,1-dimethylethyl)-phenyl]sulfonyl]-5-trifluoromethyl-1H-indol-2-yl]methyl]-benzenesulfonamide], in assay [1], the Emax amounted to 84% and the negative-log EC50 (pEC50) is 5.10. Also, in assay [2], the Emax is 86% and the negative-log EC50 (pEC50) was under 5.00.
